Measured values taken from ChEMBL document CHEMBL1151640, “Benzoxazolinone, 2,4-Dihydroxy-1,4-benzoxazin-3-one, and Its Glucoside from Acanthus mollis Seeds Inhibit Velvetleaf Germination and Growth” (1985).

Tests used:
Abutilon theophrasti [1] = assay: Phytotoxicity against Abutilon theophrasti assessed as seed germination at 1 mM after 2 days relative to control; type: functional
Abutilon theophrasti [2] = assay: Phytotoxicity against Abutilon theophrasti assessed as seed germination at 1 mM after 4 days relative to control; type: functional
Abutilon theophrasti [3] = assay: Phytotoxicity against Abutilon theophrasti assessed as seed germination at 5 mM after 2 days relative to control; type: functional
Abutilon theophrasti [4] = assay: Phytotoxicity against Abutilon theophrasti assessed as seed germination at 0.5 mM after 2 days relative to control; type: functional
Abutilon theophrasti [5] = assay: Phytotoxicity against Abutilon theophrasti assessed as seed germination at 5 mM after 4 days relative to control; type: functional
Abutilon theophrasti [6] = assay: Phytotoxicity against Abutilon theophrasti assessed as seed germination at 0.5 mM after 4 days relative to control; type: functional
Abutilon theophrasti [7] = assay: Phytotoxicity against Abutilon theophrasti assessed as seed germination at 2 mM after 2 days relative to control; type: functional
Abutilon theophrasti [8] = assay: Phytotoxicity against Abutilon theophrasti assessed as seed germination at 0.8 mM after 2 days relative to control; type: functional
Abutilon theophrasti [9] = assay: Phytotoxicity against Abutilon theophrasti assessed as seed germination at 0.6 mM after 2 days relative to control; type: functional
Abutilon theophrasti [10] = assay: Phytotoxicity against Abutilon theophrasti assessed as seed germination at 0.8 mM after 4 days relative to control; type: functional
Abutilon theophrasti [11] = assay: Phytotoxicity against Abutilon theophrasti assessed as seed germination at 0.6 mM after 4 days relative to control; type: functional
Abutilon theophrasti [12] = assay: Phytotoxicity against Abutilon theophrasti assessed as seed germination at 2 mM after 2 weeks; type: functional, organism-based
Abutilon theophrasti [13] = assay: Phytotoxicity against Abutilon theophrasti assessed as seed germination at 2 mM after 4 days relative to control; type: functional

Structure (SMILES)	Activity (Abutilon theophrasti [1]) [%]	Activity (Abutilon theophrasti [2]) [%]	Activity (Abutilon theophrasti [3]) [%]	Activity (Abutilon theophrasti [4]) [%]	Activity (Abutilon theophrasti [5]) [%]	Activity (Abutilon theophrasti [6]) [%]	Activity (Abutilon theophrasti [7]) [%]	Activity (Abutilon theophrasti [8]) [%]	Activity (Abutilon theophrasti [9]) [%]	Activity (Abutilon theophrasti [10]) [%]	Activity (Abutilon theophrasti [11]) [%]	Activity (Abutilon theophrasti [12])	Activity (Abutilon theophrasti [13]) [%]
O=c1[nH]c2ccccc2o1 [BENZOXAZOLINONE]	111	116	14	118	75	125	–	–	–	–	–	–	–
O=C1C(O[C@@H]2O[C@H](CO)[C@@H](O)[C@H](O)[C@H]2O)Oc2ccccc2N1O (stereo partly specified)	–	–	89	–	–	–	–	–	–	–	–	–	–
O=C1C(O)Oc2ccccc2N1O (stereo unspecified)	6	72	–	–	–	–	0	40	59	82	97	Toxic	0
